Assay results: patent publication US8163906B2, “Dihydroquinone and dihydronaphthridine inhibitors of JNK” (Roche Palo Alto, LLC, priority 2007, dated 2012)
Read-outs that look alike come from different tables or passages of the source.

Key:
[1] = tested on: TNFα-induced IL-6 production; assay: Rat in vivo TNFα-induced IL-6 production assay, oral gavage; set-up: species or system Female Wistar-Han rats; conditions: 30 min prior to TNF-α i.p. challenge, plasma 90 min after challenge
Description: Female Wistar-Han rats procured from Charles River Laboratories were allowed to acclimate for one week prior to use and achieve an approximate body weight of 101-130 g. Rats were administered test compound (N=8 per compound) via oral gavage 30 min prior to an intraperitoneal challenge of 0.5 μg recombinant rat TNF-α (Biosource). Blood was collected via cardiocentesis 90 min after TNF-α challenge. Plasma was prepared using lithium heparin separation tubes (BD microtainer) and frozen at −80° C. until analyzed. IL-6 levels were determined using a rat specific IL-6 ELISA kit (Biosource). The percent inhibition and ED50 values (calculated as the dose of compound at which […] is 50% of the control value) were determined.

[2] = tested on: TNFα-induced IL-6 production; assay: Rat in vivo TNFα-induced IL-6 production assay, subcutaneous; set-up: species or system Female Wistar-Han rats; conditions: plasma 90 min after TNF-α challenge
Description: Female Wistar-Han rats procured from Charles River Laboratories were allowed to acclimate for one week prior to use and achieve an approximate body weight of 114-132 g. Rats were administered compound 18 (N=8 per dose) subcutaneously 30 min prior to an intra-peritoneal challenge of 0.5 μg recombinant rat TNF-α (Biosource). Blood was collected via cardiocentesis 90 min after TNF-α challenge. Plasma was prepared using lithium heparin separation tubes (BD microtainer) and frozen at −80° C. until analyzed. IL-6 levels were determined using a rat specific IL-6 ELISA kit (Biosource). The percent inhibition and ED50 values (calculated as the dose of compound at which […] is 50% of the control value) were determined.

[3] = target: Human JNK1α1 (Homo sapiens, UniProt P45983); assay: JNK assay in vitro, phosphorylation of GST-ATF2 with [γ-33P] ATP (JNK1); format: biochemical; conditions: 1 μM ATF2, 30° C. 30 min
Human JNK1α1, sequence (P45983 1-384 isoform P45983-2): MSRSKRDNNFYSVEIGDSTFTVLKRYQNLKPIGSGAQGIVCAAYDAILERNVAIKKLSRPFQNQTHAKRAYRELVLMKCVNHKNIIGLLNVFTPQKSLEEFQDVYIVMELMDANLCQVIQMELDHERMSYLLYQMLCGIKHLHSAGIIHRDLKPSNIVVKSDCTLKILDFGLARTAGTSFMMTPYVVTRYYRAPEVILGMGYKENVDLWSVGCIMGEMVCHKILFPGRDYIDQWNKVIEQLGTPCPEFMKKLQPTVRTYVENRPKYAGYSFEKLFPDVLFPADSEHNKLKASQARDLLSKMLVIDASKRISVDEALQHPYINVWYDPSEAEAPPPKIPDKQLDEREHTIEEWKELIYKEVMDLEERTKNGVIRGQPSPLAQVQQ
Description: (§1) JNK activity was measured by phosphorylation of GST-ATF2 (19-96) with [γ-^33P] ATP. […] Human JNK2α2 assay contains 1 nM enzyme, 1 μM ATF2, 8 μM ATP with 1 uCi [γ-^33P] ATP. Human JNK1α1 assay contains 2 nM enzyme, 1 μM ATF2, 6 μM ATP with 1 μCi [γ-^33P] ATP. […] ATP. The enzyme assay was carried out in the presence or absence of several compound concentrations. JNK and compound were pre-incubated for 10 min., followed by initiation of the enzymatic reaction by adding ATP and the substrate. The reaction mixture was incubated at 30° C. for 30 min. […] The incorporation of ^33P into ATF2 was quantified on a microplate scintillation counter (Packard Topcount). Compound inhibition potency on JNK was measured by IC50 value generated from ten concentration inhibition curves fitted into the 3-parameter model: % inhibition=Maximum/(1+(IC50/[Inhibitor])^slope). Data were analyzed on Microsoft Excel for parameter estimation.

[4] = target: Human JNK2α2 (Homo sapiens, UniProt P45984); assay: JNK assay in vitro, phosphorylation of GST-ATF2 with [γ-33P] ATP (JNK2); format: biochemical; conditions: ATP at Km (8 μM), 1 μM ATF2, 30° C. 30 min
Human JNK2α2, sequence (P45984 whole entry): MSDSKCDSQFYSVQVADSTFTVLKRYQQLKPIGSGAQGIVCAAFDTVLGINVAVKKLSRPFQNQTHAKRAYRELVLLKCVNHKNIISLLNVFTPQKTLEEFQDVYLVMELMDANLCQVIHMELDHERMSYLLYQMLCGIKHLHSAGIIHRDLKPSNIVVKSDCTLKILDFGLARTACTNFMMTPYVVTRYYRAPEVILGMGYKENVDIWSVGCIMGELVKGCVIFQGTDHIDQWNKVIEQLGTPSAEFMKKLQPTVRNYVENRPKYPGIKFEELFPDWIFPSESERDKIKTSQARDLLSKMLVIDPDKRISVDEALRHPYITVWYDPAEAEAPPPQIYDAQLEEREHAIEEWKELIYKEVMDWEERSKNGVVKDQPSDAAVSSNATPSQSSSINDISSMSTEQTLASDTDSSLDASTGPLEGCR
Description: as §1

[5] = ATP at Km (6 μM), read-out: IC50 vs. JNK1

SMILES	IC50 [3, 5]	melting point	IC50 [4]	further results
COC(=O)c1c(Cc2ccc(C(=O)NCCO)cc2)c(=O)c2ccc(Cl)cc2n1-c1ccccc1 [Compound 18, 7-chloro-3-[4-(2-hydroxyethylcarbamoyl)-benzyl]-4-oxo-1-phenyl-1,4-dihydroquinoline-2-carboxylic acid methyl ester]				IL-6 Inhibition (%) ([1]; 3 mg/Kg): 53%; IL-6 Inhibition (%) ([2]; 0.3 mg/Kg): 30.01%; IL-6 Inhibition (%) ([2]; 1.0 mg/Kg): 47.83%; IL-6 Inhibition (%) ([2]; 3.0 mg/Kg): 54.85%; IL-6 Inhibition (%) ([2]; 10 mg/Kg): 71.15%
COC(=O)c1c(Cc2ccc(S(=O)(=O)N3CCC(O)CC3)cc2)c(=O)c2ccc(Cl)cc2n1-c1ccccc1 [Compound 69, 7-Chloro-3-[4-(4-hydroxypiperidine-1-sulfonyl)-benzyl]-4-oxo-1-phenyl-1,4-dihydroquinoline-2-carboxylic acid methyl ester]	0.0184 µM	170 to 171 °C	0.047 µM	
COC(=O)c1c(Cc2ccc(S(=O)(=O)N3CC[C@H](O)C3)cc2)c(=O)c2ccc(Cl)cc2n1-c1ccccc1 [Compound 87, 7-Chloro-3-[4-(3-hydroxypyrrolidine-1-sulfonyl)-benzyl]-4-oxo-1-phenyl-1,4-dihydroquinoline-2-carboxylic acid methyl ester]	0.0334 µM	135 to 136 °C	0.0832 µM	
CCC(=O)c1c(Cc2ccc(S(=O)(=O)N3CCN(C)CC3)cc2)c(=O)c2ccc(Cl)cc2n1-c1ccccc1 [Compound 80, 7-chloro-3-[4-(4-methylpiperazin-1-sulfonyl)benzyl]-1-phenyl-2-propionyl-1H-quinlin-4-one]	0.193 µM	> 300 °C	0.477 µM	
COC(=O)c1c(Cc2ccc(S(=O)(=O)N3CCN(C)CC3)cc2)c(=O)c2ccc(Cl)cc2n1-c1ccccc1 [Compound 30, 7-chloro-3-[4-(4-methyl-piperazine-1-sulfonyl)-benzyl]-4-oxo-1-phenyl-1,4-dihydroquinoline-2-carboxylic acid methyl ester]	0.0355 µM	223.3 to 226.6 °C	0.0863 µM	IL-6 Inhibition (%) ([1]; 30 mg/Kg): 46%
COC(=O)c1c(CN2CCC(N3CCOCC3)CC2)c(=O)c2ccc(F)cc2n1-c1ccccc1 [Compound 135]	0.25 µM	161 to 163 °C	2.1 µM	
COC(=O)c1c(Cc2ccc(S(=O)(=O)N3CCC(O)CC3)cc2)c(=O)c2ccc(F)cc2n1-c1ccccc1 [Compound 110]	0.0502 µM	232 to 233 °C	0.201 µM	
CC(=O)c1c(Cc2ccc(S(=O)(=O)N3CCC(O)CC3)cc2)c(=O)c2ccc(Cl)cc2n1-c1ccccc1 [Compound 70, 2-Acetyl-7-chloro-3-[4-(4-hydroxypiperidine-1-sulfonyl)-benzyl]-1-phenyl-1H-quinolin-4-one]	0.134 µM	145.5 to 147.2 °C	0.399 µM	
COC(=O)c1c(Cc2ccc(S(=O)(=O)NCCO)cc2)c(=O)c2ccc(Cl)cc2n1-c1ccccc1 [Compound 65, 7-chloro-3-[4-(2-hydroxy-ethylsulfamoyl)-benzyl]-4-oxo-1-phenyl-1,4-dihydro-quinoline-2-carboxylic acid methyl ester]	0.0328 µM	191.5 to 193.1 °C	0.0957 µM	
Nc1cccc(-n2c(-c3ncco3)c(Cc3ccccc3)c(=O)c3ccc(Cl)cc32)n1 [Compound 141, 1-(6-amino-pyridin-2-yl)-3-benzyl-7-chloro-2-oxazol-2-yl-1H-quinolin-4-one]	0.612 µM	279.3 to 282.8 °C	2.09 µM	
COC(=O)c1c(Cc2ccc(S(=O)(=O)N3CCNCC3)cc2)c(=O)c2ccc(Cl)cc2n1-c1ccccc1.Cl [Compound 67, 7-Chloro-4-oxo-1-phenyl-3-[4-(piperazine-1-sulfonyl)-benzyl]-1,4-dihydroquinoline-2-carboxylic acid methyl ester bishydrochloride]		214 to 215.5 °C	0.0485 µM	IC50 ([3]; IC50 vs. JNK1, ATP at Km (6 μM)): 0.0304 µM
